Source: patent US20230085307A1, “PYRIDAZINONE COMPOUND AND HERBICIDE” (NISSAN CHEMICAL CORPORATION, priority 2019, published 2023)

Columns and labels:
[1] = tested on: Japanese bulrush; test: Test Example 1: herbicidal activity, application before weed generation under submerged conditions (Table 16, symbol B); assay type: in vivo, Japanese bulrush (Schoenoplectus juncoides); conditions: amount of applied herbicide 320 g/ha
Method in brief: (§1)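 Alluvial soil was flooded to 4 cm depth, weed seeds were sown mixed and 2.5-leaf rice seedlings were transplanted. On sowing day, the compound's emulsion, diluted in water to a set dose, was applied to the water surface. Plants grew at 25–30 °C and were scored 0–5 after three weeks.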

[2] = tested on: redroot pigweed; test: Test Example 4: herbicidal effect by soil treatment (Table 19, symbol N); assay type: in vivo, redroot pigweed (Amaranthus retroflexus); conditions: amount of applied herbicide 320 g/ha
Method in brief: (§2)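 Seeds were sown in sterilized diluvial soil and covered with about 1.5 cm of soil. An emulsion formulation diluted with water to a predetermined herbicide amount was sprayed evenly onto the soil surface. Plants grew in a greenhouse at 25° C. to 30° C., and the effect was scored three weeks after application using criteria from an earlier test.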

[3] = tested on: blackgrass; test: Test Example 4: herbicidal effect by soil treatment (Table 19, symbol J); assay type: in vivo, blackgrass (Alopecurus myosuroides); conditions: amount of applied herbicide 320 g/ha
Method in brief: as §2

[4] = tested on: green foxtail; test: Test Example 4: herbicidal effect by soil treatment (Table 19, symbol G); assay type: in vivo, green foxtail (Setaria viridis); conditions: amount of applied herbicide 320 g/ha
Method in brief: as §2

[5] = tested on: late watergrass; test: Test Example 1: herbicidal activity, application before weed generation under submerged conditions (Table 16, symbol A); assay type: in vivo, late watergrass (Echinochloa oryzicola); conditions: amount of applied herbicide 320 g/ha
Method in brief: as §1

[6] = tested on: redroot pigweed; test: Test Example 5: herbicidal effect by foliage application, plastic box (Table 20, symbol N); assay type: in vivo, redroot pigweed (Amaranthus retroflexus); conditions: amount of applied herbicide 320 g/ha; foliage application after 14-day growth; evaluated three weeks after application
Method in brief: (§3)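 Plants sown in sterilized diluvial soil and grown 14 days in a greenhouse at 25° C to 30° C, then sprayed on the foliage with the compound's emulsion diluted in water to a predetermined herbicide amount. Injury to weeds and crops scored three weeks after application on a visual rating scale.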

[7] = tested on: blackgrass; test: Test Example 5: herbicidal effect by foliage application, plastic box (Table 20, symbol J); assay type: in vivo, blackgrass (Alopecurus myosuroides); conditions: amount of applied herbicide 320 g/ha; foliage application after 14-day growth; evaluated three weeks after application
Method in brief: as §3

[8] = tested on: oval-leafed pondweed; test: Test Example 1: herbicidal activity, application before weed generation under submerged conditions (Table 16, symbol C); assay type: in vivo, oval-leafed pondweed (Monochoria vaginalis); conditions: amount of applied herbicide 320 g/ha
Method in brief: as §1

[9] = tested on: Italian ryegrass; test: Test Example 4: herbicidal effect by soil treatment (Table 19, symbol K); assay type: in vivo, Italian ryegrass (Lolium multiflorum); conditions: amount of applied herbicide 320 g/ha
Method in brief: as §2

[10] = tested on: velvetleaf; test: Test Example 5: herbicidal effect by foliage application, plastic box (Table 20, symbol M); assay type: in vivo, velvetleaf (Abutilon theophrasti); conditions: amount of applied herbicide 320 g/ha; foliage application after 14-day growth; evaluated three weeks after application
Method in brief: as §3

[11] = tested on: persian speedwell; test: Test Example 5: herbicidal effect by foliage application, plastic box (Table 20, symbol R); assay type: in vivo, Persian speedwell (Veronica persica); conditions: amount of applied herbicide 320 g/ha; foliage application after 14-day growth; evaluated three weeks after application
Method in brief: as §3

[12] = tested on: persian speedwell; test: Test Example 4: herbicidal effect by soil treatment (Table 19, symbol R); assay type: in vivo, Persian speedwell (Veronica persica); conditions: amount of applied herbicide 320 g/ha
Method in brief: as §2

[13] = tested on: southern crabgrass; test: Test Example 4: herbicidal effect by soil treatment (Table 19, symbol F); assay type: in vivo, southern crabgrass (Digitaria ciliaris); conditions: amount of applied herbicide 320 g/ha
Method in brief: as §2

[14] = tested on: barnyard grass; test: Test Example 5: herbicidal effect by foliage application, plastic box (Table 20, symbol H); assay type: in vivo, barnyard grass (Echinochloa crus-galli); conditions: amount of applied herbicide 320 g/ha; foliage application after 14-day growth; evaluated three weeks after application
Method in brief: as §3

[15] = tested on: southern crabgrass; test: Test Example 5: herbicidal effect by foliage application, plastic box (Table 20, symbol F); assay type: in vivo, southern crabgrass (Digitaria ciliaris); conditions: amount of applied herbicide 320 g/ha; foliage application after 14-day growth; evaluated three weeks after application
Method in brief: as §3

[16] = tested on: windgrass; test: Test Example 5: herbicidal effect by foliage application, plastic box (Table 20, symbol L); assay type: in vivo, windgrass (Apera spica-venti); conditions: amount of applied herbicide 320 g/ha; foliage application after 14-day growth; evaluated three weeks after application
Method in brief: as §3

[17] = tested on: chickweed; test: Test Example 5: herbicidal effect by foliage application, plastic box (Table 20, symbol P); assay type: in vivo, common chickweed (Stellaria media); conditions: amount of applied herbicide 320 g/ha; foliage application after 14-day growth; evaluated three weeks after application
Method in brief: as §3

[18] = tested on: Italian ryegrass; test: Test Example 5: herbicidal effect by foliage application, plastic box (Table 20, symbol K); assay type: in vivo, Italian ryegrass (Lolium multiflorum); conditions: amount of applied herbicide 320 g/ha; foliage application after 14-day growth; evaluated three weeks after application
Method in brief: as §3

[19] = tested on: chickweed; test: Test Example 4: herbicidal effect by soil treatment (Table 19, symbol P); assay type: in vivo, common chickweed (Stellaria media); conditions: amount of applied herbicide 320 g/ha
Method in brief: as §2

[20] = tested on: barnyard grass; test: Test Example 3: herbicidal effect by foliage application, Wagner pot (Table 18, symbol H); assay type: in vivo, barnyard grass (Echinochloa crus-galli); conditions: 320 g/ha
Method in brief: (§4)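 Plants were sown in alluvial soil held under 0.1–0.5 cm standing water and grown 14 days in a greenhouse at 25–30 °C. An emulsifiable formulation, water-diluted to the set dose, was then sprayed onto the foliage, and effects were scored three weeks later using previously defined criteria.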

[21] = tested on: rice flat sedge; test: Test Example 3: herbicidal effect by foliage application, Wagner pot (Table 18, symbol E); assay type: in vivo, rice flat sedge (Cyperus iria); conditions: 320 g/ha
Method in brief: as §4

[22] = tested on: green foxtail; test: Test Example 5: herbicidal effect by foliage application, plastic box (Table 20, symbol G); assay type: in vivo, green foxtail (Setaria viridis); conditions: amount of applied herbicide 320 g/ha; foliage application after 14-day growth; evaluated three weeks after application
Method in brief: as §3

[23] = tested on: windgrass; test: Test Example 4: herbicidal effect by soil treatment (Table 19, symbol L); assay type: in vivo, windgrass (Apera spica-venti); conditions: amount of applied herbicide 320 g/ha
Method in brief: as §2

[24] = tested on: velvetleaf; test: Test Example 4: herbicidal effect by soil treatment (Table 19, symbol M); assay type: in vivo, velvetleaf (Abutilon theophrasti); conditions: amount of applied herbicide 320 g/ha
Method in brief: as §2

[25] = tested on: barnyard grass; test: Test Example 4: herbicidal effect by soil treatment (Table 19, symbol H); assay type: in vivo, barnyard grass (Echinochloa crus-galli); conditions: amount of applied herbicide 320 g/ha
Method in brief: as §2

[26] = tested on: lambsquarters; test: Test Example 5: herbicidal effect by foliage application, plastic box (Table 20, symbol O); assay type: in vivo, lambsquarters (Chenopodium album); conditions: amount of applied herbicide 320 g/ha; foliage application after 14-day growth; evaluated three weeks after application
Method in brief: as §3

[27] = tested on: wild oat; test: Test Example 5: herbicidal effect by foliage application, plastic box (Table 20, symbol I); assay type: in vivo, wild oat (Avena fatua); conditions: amount of applied herbicide 320 g/ha; foliage application after 14-day growth; evaluated three weeks after application
Method in brief: as §3

[28] = tested on: lambsquarters; test: Test Example 4: herbicidal effect by soil treatment (Table 19, symbol O); assay type: in vivo, lambsquarters (Chenopodium album); conditions: amount of applied herbicide 320 g/ha
Method in brief: as §2

[29] = tested on: wild oat; test: Test Example 4: herbicidal effect by soil treatment (Table 19, symbol I); assay type: in vivo, wild oat (Avena fatua); conditions: amount of applied herbicide 320 g/ha
Method in brief: as §2

[30] = tested on: Chinese sprangletop; test: Test Example 3: herbicidal effect by foliage application, Wagner pot (Table 18, symbol D); assay type: in vivo, chinese sprangletop (Leptochloa chinensis); conditions: 320 g/ha
Method in brief: as §4

Row | SMILES | Herbicidal effect, B: Japanese bulrush [1] | N: redroot pigweed, herbicidal effect grade [2] | J: blackgrass, herbicidal effect grade [3] | G: green foxtail, herbicidal effect grade [4] | Herbicidal effect, A: late watergrass [5] | Herbicidal effect by foliage application, N: redroot pigweed [6] | Herbicidal effect by foliage application, J: blackgrass [7] | Herbicidal effect, C: oval-leafed pondweed [8] | K: Italian ryegrass, herbicidal effect grade [9] | Herbicidal effect by foliage application, M: velvetleaf [10] | Herbicidal effect by foliage application, R: persian speedwell [11] | R: persian speedwell, herbicidal effect grade [12] | F: southern crabgrass, herbicidal effect grade [13] | Herbicidal effect by foliage application, H: barnyard grass [14] | Herbicidal effect by foliage application, F: southern crabgrass [15] | Herbicidal effect by foliage application, L: windgrass [16] | Herbicidal effect by foliage application, P: chickweed [17] | Herbicidal effect by foliage application, K: Italian ryegrass [18] | P: chickweed, herbicidal effect grade [19] | herbicidal effect on barnyard grass (H) [20] | further results
1 | COCc1ccc(-c2sc3cc(F)c(F)cc3c2-c2c(O)c(C)nn(C)c2=O)cc1 [5-009] | 0 (Herbicidal rate of 5% or less (almost no effect)) | 4 (Herbicidal rate of 70% or more and less than 90%) | 0 (Herbicidal rate of 5% or less (almost no effect)) | 2 (Herbicidal rate of 20% or more and less than 40%) | 2 (Herbicidal rate of 20% or more and less than 40%) | 5 (Herbicidal rate of 90% or more (almost completely withered)) | 0 (Herbicidal rate of 5% or less (almost no effect)) | 0 (Herbicidal rate of 5% or less (almost no effect)) | 0 (Herbicidal rate of 5% or less (almost no effect)) | 4 (Herbicidal rate of 70% or more and less than 90%) | 5 (Herbicidal rate of 90% or more (almost completely withered)) | 5 (Herbicidal rate of 90% or more (almost completely withered)) | 0 (Herbicidal rate of 5% or less (almost no effect)) | 3 (Herbicidal rate of 40% or more and less than 70%) | 2 (Herbicidal rate of 20% or more and less than 40%) | 0 (Herbicidal rate of 5% or less (almost no effect)) | 5 (Herbicidal rate of 90% or more (almost completely withered)) | 3 (Herbicidal rate of 40% or more and less than 70%) | 5 (Herbicidal rate of 90% or more (almost completely withered)) | 4 (Herbicidal rate of 70% or more and less than 90%) | herbicidal effect on rice flat sedge (E) [21]: 3 (Herbicidal rate of 40% or more and less than 70%); Herbicidal effect by foliage application, G: green foxtail [22]: 3 (Herbicidal rate of 40% or more and less than 70%); L: windgrass, herbicidal effect grade [23]: 0 (Herbicidal rate of 5% or less (almost no effect)); M: velvetleaf, herbicidal effect grade [24]: 2 (Herbicidal rate of 20% or more and less than 40%); H: barnyard grass, herbicidal effect grade [25]: 0 (Herbicidal rate of 5% or less (almost no effect)); Herbicidal effect by foliage application, O: lambsquarters [26]: 3 (Herbicidal rate of 40% or more and less than 70%); Herbicidal effect by foliage application, I: wild oat [27]: 0 (Herbicidal rate of 5% or less (almost no effect)); O: lambsquarters, herbicidal effect grade [28]: 4 (Herbicidal rate of 70% or more and less than 90%); I: wild oat, herbicidal effect grade [29]: 0 (Herbicidal rate of 5% or less (almost no effect)); herbicidal effect on Chinese sprangletop (D) [30]: 3 (Herbicidal rate of 40% or more and less than 70%)
2 | CCOc1ccccc1-c1sc2cc(F)c(F)cc2c1-c1c(O)c(C)nn(C)c1=O [5-016] | 1 (Herbicidal rate of 5% or more and less than 20%) | 5 (Herbicidal rate of 90% or more (almost completely withered)) | 4 (Herbicidal rate of 70% or more and less than 90%) | 5 (Herbicidal rate of 90% or more (almost completely withered)) | 3 (Herbicidal rate of 40% or more and less than 70%) | 5 (Herbicidal rate of 90% or more (almost completely withered)) | 4 (Herbicidal rate of 70% or more and less than 90%) | 0 (Herbicidal rate of 5% or less (almost no effect)) | 3 (Herbicidal rate of 40% or more and less than 70%) | 5 (Herbicidal rate of 90% or more (almost completely withered)) | 5 (Herbicidal rate of 90% or more (almost completely withered)) | 5 (Herbicidal rate of 90% or more (almost completely withered)) | 4 (Herbicidal rate of 70% or more and less than 90%) | 5 (Herbicidal rate of 90% or more (almost completely withered)) | 4 (Herbicidal rate of 70% or more and less than 90%) | 5 (Herbicidal rate of 90% or more (almost completely withered)) | 5 (Herbicidal rate of 90% or more (almost completely withered)) | 3 (Herbicidal rate of 40% or more and less than 70%) | 5 (Herbicidal rate of 90% or more (almost completely withered)) | 5 (Herbicidal rate of 90% or more (almost completely withered)) | herbicidal effect on rice flat sedge (E) [21]: 5 (Herbicidal rate of 90% or more (almost completely withered)); Herbicidal effect by foliage application, G: green foxtail [22]: 5 (Herbicidal rate of 90% or more (almost completely withered)); L: windgrass, herbicidal effect grade [23]: 5 (Herbicidal rate of 90% or more (almost completely withered)); M: velvetleaf, herbicidal effect grade [24]: 4 (Herbicidal rate of 70% or more and less than 90%); H: barnyard grass, herbicidal effect grade [25]: 5 (Herbicidal rate of 90% or more (almost completely withered)); Herbicidal effect by foliage application, O: lambsquarters [26]: 4 (Herbicidal rate of 70% or more and less than 90%); Herbicidal effect by foliage application, I: wild oat [27]: 0 (Herbicidal rate of 5% or less (almost no effect)); O: lambsquarters, herbicidal effect grade [28]: 5 (Herbicidal rate of 90% or more (almost completely withered)); I: wild oat, herbicidal effect grade [29]: 0 (Herbicidal rate of 5% or less (almost no effect)); herbicidal effect on Chinese sprangletop (D) [30]: 2 (Herbicidal rate of 20% or more and less than 40%)
